# Assay results taken from ChEMBL document CHEMBL1201862, “PubChem BioAssay data set” (2004).
# The source made the active and inactive calls.
# Key:
# [1] = molecular target: DNA dC->dU-editing enzyme APOBEC-3G (Homo sapiens, UniProt Q9HC16); assay: Dose Response confirmation of small molecule APOBEC3G DNA Deaminase Inhibitors via a fluorescence-based single-stranded DNA deaminase assay. [Related pubchem assays (depositor defined):AID493012, AID493028]; assay type: functional
# Bcl-2-like protein 10 = molecular target: T1, Bcl-2-like protein 10 (Homo sapiens, UniProt Q9HD36); assay: Bcl-B/TR3 peptide binding disruption – biochemical, fluorescence polarization, FITC-TR3 peptide, selectivity assay for Bfl-1 inhibitor project, primary screen (AID 748);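 further: fluorescence polarization from a fluorescein-labelled TR3 peptide binding purified Bcl-B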
# T1 sequence (Q9HD36 whole entry): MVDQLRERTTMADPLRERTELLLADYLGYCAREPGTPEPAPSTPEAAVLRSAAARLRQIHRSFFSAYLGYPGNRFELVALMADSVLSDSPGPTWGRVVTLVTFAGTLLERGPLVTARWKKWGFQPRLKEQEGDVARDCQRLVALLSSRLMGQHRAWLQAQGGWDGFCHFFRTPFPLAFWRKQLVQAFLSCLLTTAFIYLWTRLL
# Estrogen receptor beta [2] = molecular target: T2, Estrogen receptor beta (Homo sapiens, UniProt Q92731); assay: blockers of SRC-3 recruitment to ERβ – biochemical, ELISA, streptavidin-HRP readout, orthogonal assay, confirmation (AID 1060)
# T2 sequence (Q92731 whole entry): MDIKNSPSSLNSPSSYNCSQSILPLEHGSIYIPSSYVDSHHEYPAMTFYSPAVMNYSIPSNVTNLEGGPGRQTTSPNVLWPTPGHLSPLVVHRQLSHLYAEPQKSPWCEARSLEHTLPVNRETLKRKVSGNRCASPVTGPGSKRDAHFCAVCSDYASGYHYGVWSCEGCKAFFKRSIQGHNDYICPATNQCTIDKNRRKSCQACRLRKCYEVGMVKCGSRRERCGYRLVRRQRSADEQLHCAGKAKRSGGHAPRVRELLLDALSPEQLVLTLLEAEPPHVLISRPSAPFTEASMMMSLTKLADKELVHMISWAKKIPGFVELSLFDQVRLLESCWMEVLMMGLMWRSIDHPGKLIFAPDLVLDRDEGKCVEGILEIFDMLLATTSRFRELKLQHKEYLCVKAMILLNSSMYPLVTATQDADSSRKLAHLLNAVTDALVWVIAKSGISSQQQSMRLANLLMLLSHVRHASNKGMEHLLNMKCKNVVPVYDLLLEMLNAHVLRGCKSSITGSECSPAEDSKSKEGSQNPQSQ
# Estrogen receptor beta [3] = molecular target: T2, Estrogen receptor beta
# Beta-galactosidase = Beta-galactosidase (Escherichia coli, UniProt Q8VNN2); assay type: functional
# Sequence of Beta-galactosidase (Q8VNN2 whole entry): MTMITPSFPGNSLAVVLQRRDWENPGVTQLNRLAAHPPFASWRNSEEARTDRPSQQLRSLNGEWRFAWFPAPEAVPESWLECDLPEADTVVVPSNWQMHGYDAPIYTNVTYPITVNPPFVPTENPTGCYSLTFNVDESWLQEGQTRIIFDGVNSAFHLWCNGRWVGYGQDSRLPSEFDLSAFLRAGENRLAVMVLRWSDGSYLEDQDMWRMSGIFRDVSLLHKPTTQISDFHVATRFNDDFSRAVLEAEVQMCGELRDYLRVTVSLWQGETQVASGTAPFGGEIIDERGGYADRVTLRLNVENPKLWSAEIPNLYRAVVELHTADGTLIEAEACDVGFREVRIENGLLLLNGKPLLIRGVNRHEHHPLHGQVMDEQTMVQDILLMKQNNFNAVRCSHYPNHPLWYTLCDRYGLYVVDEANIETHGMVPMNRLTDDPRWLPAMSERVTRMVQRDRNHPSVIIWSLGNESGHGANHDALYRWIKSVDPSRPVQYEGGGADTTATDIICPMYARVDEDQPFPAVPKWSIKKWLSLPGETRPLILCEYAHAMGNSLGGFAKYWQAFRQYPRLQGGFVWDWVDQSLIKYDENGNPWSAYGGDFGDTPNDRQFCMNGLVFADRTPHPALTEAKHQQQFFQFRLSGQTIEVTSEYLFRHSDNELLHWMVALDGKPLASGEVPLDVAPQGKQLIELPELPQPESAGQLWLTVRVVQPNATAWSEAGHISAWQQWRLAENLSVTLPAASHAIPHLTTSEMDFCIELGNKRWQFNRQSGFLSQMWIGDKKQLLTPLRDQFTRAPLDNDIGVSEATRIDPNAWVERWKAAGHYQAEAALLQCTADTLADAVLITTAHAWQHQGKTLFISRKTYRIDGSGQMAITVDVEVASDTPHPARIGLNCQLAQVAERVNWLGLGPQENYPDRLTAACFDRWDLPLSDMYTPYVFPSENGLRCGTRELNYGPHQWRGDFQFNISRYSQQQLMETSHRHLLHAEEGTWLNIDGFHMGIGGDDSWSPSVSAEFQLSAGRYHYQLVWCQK
# [4] = molecular target: T3, Kappa-type opioid receptor (Homo sapiens, UniProt P41145); assay type: functional
# T3 sequence (P41145 whole entry): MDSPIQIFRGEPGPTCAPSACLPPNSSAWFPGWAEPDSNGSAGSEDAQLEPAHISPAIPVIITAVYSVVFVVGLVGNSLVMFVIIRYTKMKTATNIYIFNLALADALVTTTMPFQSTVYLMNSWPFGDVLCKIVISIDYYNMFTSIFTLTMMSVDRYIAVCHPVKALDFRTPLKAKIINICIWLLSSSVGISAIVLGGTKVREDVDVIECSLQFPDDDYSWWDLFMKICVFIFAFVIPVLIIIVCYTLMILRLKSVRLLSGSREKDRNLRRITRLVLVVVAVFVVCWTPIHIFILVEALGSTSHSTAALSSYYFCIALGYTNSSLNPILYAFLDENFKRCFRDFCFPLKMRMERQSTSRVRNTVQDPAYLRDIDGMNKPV
# [5] = molecular target: T3, Kappa-type opioid receptor; assay type: functional; remark: listed apart in the source
# [6] = molecular target: Voltage-dependent T-type calcium channel subunit alpha-1H (Homo sapiens, UniProt O95180); assay type: functional;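 further: channel activity triggered by adding a high calcium stimulation buffer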
# Sequence of Voltage-dependent T-type calcium channel subunit alpha-1H (O95180 whole entry): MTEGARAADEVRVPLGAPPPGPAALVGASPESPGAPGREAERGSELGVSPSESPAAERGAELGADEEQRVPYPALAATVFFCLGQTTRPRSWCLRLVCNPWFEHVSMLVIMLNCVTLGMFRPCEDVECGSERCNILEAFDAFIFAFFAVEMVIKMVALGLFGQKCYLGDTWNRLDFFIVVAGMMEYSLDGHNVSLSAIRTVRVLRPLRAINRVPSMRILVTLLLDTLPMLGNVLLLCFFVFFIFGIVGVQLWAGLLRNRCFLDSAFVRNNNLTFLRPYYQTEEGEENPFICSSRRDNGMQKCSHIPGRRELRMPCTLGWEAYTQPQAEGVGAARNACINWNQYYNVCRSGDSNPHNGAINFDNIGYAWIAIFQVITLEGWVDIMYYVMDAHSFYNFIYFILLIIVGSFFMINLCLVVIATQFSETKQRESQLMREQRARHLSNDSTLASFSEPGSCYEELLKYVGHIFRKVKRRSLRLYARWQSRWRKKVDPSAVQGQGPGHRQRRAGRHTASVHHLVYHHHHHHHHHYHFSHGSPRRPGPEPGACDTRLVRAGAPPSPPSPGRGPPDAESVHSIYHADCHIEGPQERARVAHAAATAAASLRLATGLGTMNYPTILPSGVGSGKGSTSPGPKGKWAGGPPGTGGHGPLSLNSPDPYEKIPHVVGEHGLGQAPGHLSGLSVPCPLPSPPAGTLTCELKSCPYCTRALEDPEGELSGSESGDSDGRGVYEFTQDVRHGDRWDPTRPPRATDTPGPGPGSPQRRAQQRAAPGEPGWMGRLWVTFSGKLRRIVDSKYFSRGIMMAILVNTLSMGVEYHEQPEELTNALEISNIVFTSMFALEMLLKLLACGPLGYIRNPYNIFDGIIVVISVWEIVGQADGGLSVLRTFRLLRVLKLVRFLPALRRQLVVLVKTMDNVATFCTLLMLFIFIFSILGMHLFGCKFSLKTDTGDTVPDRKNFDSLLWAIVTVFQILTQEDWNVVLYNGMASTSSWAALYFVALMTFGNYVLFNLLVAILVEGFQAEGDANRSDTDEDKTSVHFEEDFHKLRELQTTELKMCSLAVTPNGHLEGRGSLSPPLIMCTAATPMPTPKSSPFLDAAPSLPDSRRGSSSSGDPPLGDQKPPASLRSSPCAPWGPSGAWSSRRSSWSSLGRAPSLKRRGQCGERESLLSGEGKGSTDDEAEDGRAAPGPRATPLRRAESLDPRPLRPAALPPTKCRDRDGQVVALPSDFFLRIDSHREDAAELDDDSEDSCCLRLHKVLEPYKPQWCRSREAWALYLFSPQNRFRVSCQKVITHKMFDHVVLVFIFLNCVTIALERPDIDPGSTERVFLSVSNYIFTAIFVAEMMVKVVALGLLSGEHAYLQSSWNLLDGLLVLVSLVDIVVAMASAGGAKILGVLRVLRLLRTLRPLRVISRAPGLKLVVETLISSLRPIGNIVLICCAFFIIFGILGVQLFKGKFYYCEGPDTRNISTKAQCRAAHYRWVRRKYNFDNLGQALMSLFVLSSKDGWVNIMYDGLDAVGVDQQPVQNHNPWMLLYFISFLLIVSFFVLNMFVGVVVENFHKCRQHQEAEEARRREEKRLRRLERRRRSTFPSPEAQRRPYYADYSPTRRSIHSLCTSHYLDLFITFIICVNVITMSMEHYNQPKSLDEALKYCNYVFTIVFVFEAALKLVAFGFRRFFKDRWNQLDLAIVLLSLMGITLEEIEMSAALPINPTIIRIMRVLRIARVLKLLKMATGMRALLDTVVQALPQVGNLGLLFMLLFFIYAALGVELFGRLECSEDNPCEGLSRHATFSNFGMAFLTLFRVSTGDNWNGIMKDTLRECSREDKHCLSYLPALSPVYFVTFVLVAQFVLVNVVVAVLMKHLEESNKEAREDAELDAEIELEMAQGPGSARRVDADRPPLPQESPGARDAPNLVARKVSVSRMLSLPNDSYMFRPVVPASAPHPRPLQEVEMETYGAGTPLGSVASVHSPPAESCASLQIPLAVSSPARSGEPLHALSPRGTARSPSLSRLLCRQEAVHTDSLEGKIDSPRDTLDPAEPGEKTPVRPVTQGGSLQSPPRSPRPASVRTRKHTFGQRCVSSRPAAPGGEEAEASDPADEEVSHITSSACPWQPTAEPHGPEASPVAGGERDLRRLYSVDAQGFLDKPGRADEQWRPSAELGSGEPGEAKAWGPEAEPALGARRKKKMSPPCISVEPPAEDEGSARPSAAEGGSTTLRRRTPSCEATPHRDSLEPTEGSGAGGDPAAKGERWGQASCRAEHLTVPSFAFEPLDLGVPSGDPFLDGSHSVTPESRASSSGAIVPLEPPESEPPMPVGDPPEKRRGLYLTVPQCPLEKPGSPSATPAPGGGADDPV
# [7] = fluconazole-exposed Candida albicans growth modulators – fluorescence, retest, confirmation (AID 2467); assay type: functional, cell-based
# Large T antigen = Large T antigen (Simian virus 40, UniProt P03070); assay type: functional, Betapolyomavirus macacae;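 further: Confirmatory-stage PubChem screen for compounds that inhibit SV40 T antigen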
# [8] = NIH-3T3 fibroblast cytotoxicity, dose response, cytotoxicity control, cell-based, fluorescence, Alamar Blue, secondary assay (AID 2327); assay type: functional;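 further: NIH-3T3 mouse fibroblasts cultured with fluconazole at 8 µg/mL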
# [9] = molecular target: Induced myeloid leukemia cell differentiation protein Mcl-1 (Homo sapiens, UniProt Q07820); assay type: functional
# Sequence of Induced myeloid leukemia cell differentiation protein Mcl-1 (Q07820 whole entry): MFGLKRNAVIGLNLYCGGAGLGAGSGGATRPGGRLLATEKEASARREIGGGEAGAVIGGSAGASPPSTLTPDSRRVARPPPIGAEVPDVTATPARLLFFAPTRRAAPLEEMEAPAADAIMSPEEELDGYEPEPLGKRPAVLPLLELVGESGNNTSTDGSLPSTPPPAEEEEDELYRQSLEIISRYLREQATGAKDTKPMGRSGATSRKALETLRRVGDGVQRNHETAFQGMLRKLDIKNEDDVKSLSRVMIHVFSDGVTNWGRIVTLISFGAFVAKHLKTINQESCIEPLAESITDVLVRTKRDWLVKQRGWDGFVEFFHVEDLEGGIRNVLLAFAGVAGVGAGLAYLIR
# [10] = molecular target: T4, Replicative DNA helicase DnaB (Mycobacterium tuberculosis, UniProt P9WMR3); assay: DnaB intein splicing inhibitors, dose response, biochemical, cell-free fluorescence (AID 449749); assay type: functional
# T4 sequence (P9WMR3 whole entry): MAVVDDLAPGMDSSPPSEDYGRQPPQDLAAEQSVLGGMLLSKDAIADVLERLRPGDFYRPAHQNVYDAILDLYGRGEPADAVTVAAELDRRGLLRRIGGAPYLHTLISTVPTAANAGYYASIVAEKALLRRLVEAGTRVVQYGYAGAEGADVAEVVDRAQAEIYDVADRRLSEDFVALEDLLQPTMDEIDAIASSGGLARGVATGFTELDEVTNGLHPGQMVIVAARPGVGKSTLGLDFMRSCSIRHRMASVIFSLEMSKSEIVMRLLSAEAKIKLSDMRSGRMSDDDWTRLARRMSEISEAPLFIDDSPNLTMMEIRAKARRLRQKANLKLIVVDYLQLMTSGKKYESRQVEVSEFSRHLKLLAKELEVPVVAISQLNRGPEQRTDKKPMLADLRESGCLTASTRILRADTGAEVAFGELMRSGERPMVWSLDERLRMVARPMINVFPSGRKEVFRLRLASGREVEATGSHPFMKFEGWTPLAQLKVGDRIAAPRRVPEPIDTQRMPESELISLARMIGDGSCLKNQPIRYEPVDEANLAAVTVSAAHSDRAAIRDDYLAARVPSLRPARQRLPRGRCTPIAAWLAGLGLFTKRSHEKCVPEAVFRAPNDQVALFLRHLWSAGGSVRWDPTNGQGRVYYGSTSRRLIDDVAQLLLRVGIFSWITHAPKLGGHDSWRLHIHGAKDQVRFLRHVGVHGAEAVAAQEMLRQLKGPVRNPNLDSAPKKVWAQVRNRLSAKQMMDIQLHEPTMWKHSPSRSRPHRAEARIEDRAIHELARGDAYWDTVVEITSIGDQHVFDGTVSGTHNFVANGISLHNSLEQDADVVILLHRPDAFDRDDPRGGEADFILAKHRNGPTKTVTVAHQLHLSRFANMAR
# Aminopeptidase N = molecular target: T5, Aminopeptidase N (Plasmodium falciparum FcB1/Columbia, UniProt O96935); assay: malaria alanyl aminopeptidase activity blockers – biochemical, fluorogenic H-Leu-NHMec substrate, 1536-well (AID 1445); parameters: species or system Plasmodium falciparum 3D7, 3D7
# T5 sequence (O96935 whole entry): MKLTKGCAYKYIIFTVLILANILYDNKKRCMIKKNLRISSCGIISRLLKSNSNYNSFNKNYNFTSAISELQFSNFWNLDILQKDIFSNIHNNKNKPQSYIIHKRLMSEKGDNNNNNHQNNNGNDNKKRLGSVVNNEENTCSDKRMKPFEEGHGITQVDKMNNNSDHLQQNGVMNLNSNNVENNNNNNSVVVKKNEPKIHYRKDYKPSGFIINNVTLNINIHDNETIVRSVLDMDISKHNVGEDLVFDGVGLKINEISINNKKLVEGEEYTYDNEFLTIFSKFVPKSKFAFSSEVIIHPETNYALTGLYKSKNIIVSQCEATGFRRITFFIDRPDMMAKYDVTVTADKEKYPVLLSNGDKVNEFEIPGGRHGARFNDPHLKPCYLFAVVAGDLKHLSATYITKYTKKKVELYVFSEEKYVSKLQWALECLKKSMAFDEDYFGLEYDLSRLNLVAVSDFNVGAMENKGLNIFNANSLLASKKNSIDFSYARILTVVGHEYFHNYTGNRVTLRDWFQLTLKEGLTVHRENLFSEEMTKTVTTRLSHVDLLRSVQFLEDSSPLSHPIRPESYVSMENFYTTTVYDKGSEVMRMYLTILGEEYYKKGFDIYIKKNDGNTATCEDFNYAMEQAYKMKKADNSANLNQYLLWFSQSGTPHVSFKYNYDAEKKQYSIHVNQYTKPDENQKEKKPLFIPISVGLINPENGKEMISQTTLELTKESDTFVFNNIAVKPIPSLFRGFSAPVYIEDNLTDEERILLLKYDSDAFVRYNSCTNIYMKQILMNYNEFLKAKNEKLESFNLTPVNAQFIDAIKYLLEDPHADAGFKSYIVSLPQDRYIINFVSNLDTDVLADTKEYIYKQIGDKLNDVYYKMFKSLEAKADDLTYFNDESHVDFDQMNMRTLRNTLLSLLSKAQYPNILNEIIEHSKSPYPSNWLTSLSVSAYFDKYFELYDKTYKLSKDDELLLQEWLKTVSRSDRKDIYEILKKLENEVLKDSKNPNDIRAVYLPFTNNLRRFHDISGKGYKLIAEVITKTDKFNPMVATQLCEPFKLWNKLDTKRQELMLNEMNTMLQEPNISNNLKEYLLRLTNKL
# Protein RecA = molecular target: T6, Protein RecA (Mycobacterium tuberculosis, UniProt P9WHJ3); assay: Fluorescence Cell-Free Homogeneous Dose Retest to Identify Inhibitors of RecA-Intein Splicing Activity. [Related pubchem assays (depositor defined):AID2097, AID2223, AID489010, AID492950]; assay type: functional
# T6 sequence (P9WHJ3 whole entry): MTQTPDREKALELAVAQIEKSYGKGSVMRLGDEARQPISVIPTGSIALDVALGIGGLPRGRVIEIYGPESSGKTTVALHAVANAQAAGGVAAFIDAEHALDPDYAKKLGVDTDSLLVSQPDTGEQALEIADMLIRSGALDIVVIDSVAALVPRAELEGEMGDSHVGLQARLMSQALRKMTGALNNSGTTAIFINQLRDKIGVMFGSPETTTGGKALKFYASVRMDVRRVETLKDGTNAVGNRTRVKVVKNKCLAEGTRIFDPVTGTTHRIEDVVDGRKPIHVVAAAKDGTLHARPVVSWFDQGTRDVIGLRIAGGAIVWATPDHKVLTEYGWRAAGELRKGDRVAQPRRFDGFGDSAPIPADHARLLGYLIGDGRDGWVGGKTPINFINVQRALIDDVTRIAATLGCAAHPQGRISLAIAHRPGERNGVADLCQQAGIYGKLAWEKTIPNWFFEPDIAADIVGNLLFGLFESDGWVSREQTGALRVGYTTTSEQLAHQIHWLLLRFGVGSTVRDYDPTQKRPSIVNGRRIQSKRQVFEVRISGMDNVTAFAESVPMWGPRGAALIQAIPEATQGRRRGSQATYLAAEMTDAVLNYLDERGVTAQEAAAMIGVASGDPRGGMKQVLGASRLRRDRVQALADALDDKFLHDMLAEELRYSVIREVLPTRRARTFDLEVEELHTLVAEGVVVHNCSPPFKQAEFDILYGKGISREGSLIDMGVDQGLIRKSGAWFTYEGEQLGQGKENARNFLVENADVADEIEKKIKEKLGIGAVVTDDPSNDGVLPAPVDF
# [11] = molecular target: T7, Short transient receptor potential channel 4 (Mus musculus, UniProt Q9QUQ5); assay: block of DAMGO-driven TRPC4 calcium entry – cell-based, HEK293 TRPC4/mu-opioid, Fluo-4 calcium, dose response (AID 434942); assay type: functional;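 further: potency of inhibitors blocking the TRPC4 calcium response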
# T7 sequence (Q9QUQ5 whole entry): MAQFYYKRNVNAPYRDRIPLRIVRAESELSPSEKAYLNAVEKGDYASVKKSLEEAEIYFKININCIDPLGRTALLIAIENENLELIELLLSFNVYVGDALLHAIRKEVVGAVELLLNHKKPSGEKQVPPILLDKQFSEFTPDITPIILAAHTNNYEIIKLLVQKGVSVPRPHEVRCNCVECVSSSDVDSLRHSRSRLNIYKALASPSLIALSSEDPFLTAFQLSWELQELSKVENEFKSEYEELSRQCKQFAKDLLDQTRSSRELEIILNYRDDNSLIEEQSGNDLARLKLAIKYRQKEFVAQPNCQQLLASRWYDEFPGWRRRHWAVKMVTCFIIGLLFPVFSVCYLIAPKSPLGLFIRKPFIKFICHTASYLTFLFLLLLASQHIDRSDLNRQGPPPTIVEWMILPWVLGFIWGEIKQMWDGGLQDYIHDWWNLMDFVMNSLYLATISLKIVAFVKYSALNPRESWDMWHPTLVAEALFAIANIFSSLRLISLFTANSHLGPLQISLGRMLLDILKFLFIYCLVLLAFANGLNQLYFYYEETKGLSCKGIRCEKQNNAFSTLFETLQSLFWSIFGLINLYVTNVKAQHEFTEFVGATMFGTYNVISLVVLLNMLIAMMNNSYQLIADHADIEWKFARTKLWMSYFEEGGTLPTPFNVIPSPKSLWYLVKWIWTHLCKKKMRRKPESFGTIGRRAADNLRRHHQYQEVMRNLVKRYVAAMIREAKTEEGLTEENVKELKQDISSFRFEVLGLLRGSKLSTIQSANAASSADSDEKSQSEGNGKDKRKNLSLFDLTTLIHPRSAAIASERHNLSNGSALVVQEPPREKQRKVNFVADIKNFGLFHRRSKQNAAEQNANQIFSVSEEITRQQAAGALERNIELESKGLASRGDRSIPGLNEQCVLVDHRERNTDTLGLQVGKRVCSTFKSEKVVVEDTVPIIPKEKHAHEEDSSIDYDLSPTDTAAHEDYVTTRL
# [12] = NIH3T3 cell viability loss – ATP luminescence, mouse fibroblasts, counter-screen, dose response (AID 2010); assay type: functional, cell-based;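 further: cells exposed to compound for about 90 hours before reading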
# [13] = Trypanosoma cruzi growth suppression in host cells – NIH3T3 host cells, beta-gal luminescence, confirmation (AID 2044); assay type: functional, cell-based;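 further: intracellular parasites grown in NIH/3T3 mouse fibroblasts as host cells; luminescent beta-galactosidase reporter signal from transgenic T. cruzi replicating inside host cells; inhibitors lower the luminescence signal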
# Trypsin = Trypsin (Sus scrofa, UniProt P00761); assay: trypsin protease activity blockade – biochemical, quenched peptide fluorescence, cherry-pick, selectivity assay for Rce1 protease inhibitor project, dose response (AID 488789)
# Kallikrein-7 = Kallikrein-7 (Homo sapiens, UniProt P49862); assay: Fluorescence Intensity-based biochemical primary high throughput dose response assay to identify activators of kallikrein-7 (K7) zymogen.
# Sequence of DNA dC->dU-editing enzyme APOBEC-3G (Q9HC16 whole entry): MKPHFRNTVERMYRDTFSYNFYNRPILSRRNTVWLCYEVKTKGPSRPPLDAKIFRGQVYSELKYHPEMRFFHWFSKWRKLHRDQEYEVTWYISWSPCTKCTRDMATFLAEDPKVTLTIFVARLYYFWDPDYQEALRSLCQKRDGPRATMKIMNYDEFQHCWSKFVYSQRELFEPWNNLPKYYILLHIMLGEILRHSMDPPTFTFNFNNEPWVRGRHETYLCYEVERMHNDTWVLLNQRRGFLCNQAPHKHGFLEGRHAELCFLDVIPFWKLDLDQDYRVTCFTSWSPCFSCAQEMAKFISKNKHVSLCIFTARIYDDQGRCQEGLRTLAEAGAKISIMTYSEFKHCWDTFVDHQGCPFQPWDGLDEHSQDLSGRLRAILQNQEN
smiles,measurement,setting,value
O=S(=O)(c1ccccc1)N(F)S(=O)(=O)c1ccccc1,IC50,[1],55.3 µM (active)
CCCC1=C(C(=O)OCC)C(c2cc(Cl)cc(OC)c2OCC(=O)OCC)NC(=O)N1 (stereo not drawn),IC50,Bcl-2-like protein 10,> 100 µM (inactive)
CSc1ccccc1NC(=O)c1noc2c1CCC2,IC50,Bcl-2-like protein 10,12.6 µM (active)
same,IC50,Estrogen receptor beta [2],> 50 µM (not active)
same,IC50,Estrogen receptor beta [3],3.77 µM (active)
Cc1sc(Cc2nc(O)cs2)nc1-c1ccccc1,EC50,Beta-galactosidase,> 31.5 µM (inactive)
same,IC50,[4],15.6 µM (active)
same,IC50,[5],> 32 µM
COC(=O)C1=C(C)N(c2ccccc2)/C(=C/c2cccs2)C1=O,IC50,Bcl-2-like protein 10,> 50 µM (inactive)
COc1ccc(N(CC(=O)Nc2cccc(C(F)(F)F)c2)S(C)(=O)=O)cc1,EC50,[6],7.98 µM (active)
O=C(O)COc1ccccc1C(Nc1cccnc1)c1cc(Cl)c2cccnc2c1O (stereo not drawn),EC50,[7],> 38 µM (not active)
same,IC50,Large T antigen,10.3 µM (active)
same,EC50,[8],> 150 µM (inactive)
same,IC50,[9],1.71 µM (active)
same,AC50,[10],> 380 µM (inactive)
same,IC50,Aminopeptidase N,38.4 µM (active)
same,EC50,Protein RecA,11.8 µM (active)
Cc1nc2scc(-c3ccccc3)c2c(=O)n1N=C1C=CC(=O)C=C1,EC50,Beta-galactosidase,> 31.5 µM (inactive)
same,EC50,[11],5.96 µM (active)
same,IC50,[4],9.24 µM (active)
same,EC50,[12],7.47 µM (active)
same,IC50,[1],9.73 µM (active)
same,EC50,[13],2.23 µM (active)
same,IC50,[5],16.5 µM
O=C1NC(c2ccc(Br)cc2)Nc2ccccc21 (stereo not drawn),AC50,Trypsin,15.3 µM (active)
same,EC50,Kallikrein-7,> 69.5 µM (inactive)
CCc1ccc(S(=O)(=O)NCCc2csc(-c3ccccc3)n2)s1,EC50,[6],4.22 µM (active)
Oc1ccccc1C1=Nc2nc3ccccc3n2C(c2ccccc2)C1 (stereo not drawn),EC50,[6],6.95 µM (active)
